Measurements as given in patent US20150352037A1, “ANTI-AGING COMPOSITION FOR VITALIZATION OF RETINOIC ACID RECEPTOR THAT CONTAINS MIXED EXTRACT OF CHINESE MATRIMONY VINE AND PINE NEEDLES AS EFFECTIVE COMPONENT” (Amorepacific Corporation, priority 2011, published 2015).

Experiments:
Assay type in all cases: cell-based
[1] = molecular target: T1, retinoic acid receptor α (RAR-α) (Homo sapiens, UniProt P10276); assay: Retinoic acid receptor α transcriptional activity, luciferase reporter in transfected CV-1 cells; conditions: monkey kidney epithelial CV-1 cells, 20 h; extracts 100 μg/ml (Example 3: 100 μg/ml of each extract), retinoic acid 1 μM; corrected with β-galactosidase activity; control = 100
T1 construct: expressed in transfected cells; host or cells: monkey kidney epithelial CV-1 cells
T1 sequence (P10276 1-462): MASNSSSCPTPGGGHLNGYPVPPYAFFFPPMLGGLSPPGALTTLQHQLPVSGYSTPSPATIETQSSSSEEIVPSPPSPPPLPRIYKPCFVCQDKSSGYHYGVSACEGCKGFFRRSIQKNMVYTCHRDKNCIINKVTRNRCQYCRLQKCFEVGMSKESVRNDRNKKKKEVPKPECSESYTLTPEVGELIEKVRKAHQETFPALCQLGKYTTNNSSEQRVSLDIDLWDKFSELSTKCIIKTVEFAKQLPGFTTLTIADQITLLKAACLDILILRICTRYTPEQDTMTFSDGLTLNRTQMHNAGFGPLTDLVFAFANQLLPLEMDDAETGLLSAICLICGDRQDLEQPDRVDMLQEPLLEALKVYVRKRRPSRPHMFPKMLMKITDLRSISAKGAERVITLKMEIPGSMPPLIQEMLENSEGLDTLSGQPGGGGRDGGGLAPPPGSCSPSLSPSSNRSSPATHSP
Description: (§1) Using the Lycium chinense extract obtained in Example 1, the pine needle extract obtained in Example 2, and the Lycium chinense extract/pine needle extract mixture (Example 3) obtained by mixing the extract of Example 1 with the extract of Example 2, their effects on retinoic acid receptor α/γ (RAR-α/γ) transcriptional activities were measured in the following manner. As a positive control, retinoic acid known to activate retinoic acid receptor was used.
(§2) First, monkey kidney epithelial CV-1 cells were seeded into a 24-well plate at a concentration of 4×10^4 cells/well and cultured for 12-16 hours. Before transfection, the plate was washed with phosphate buffered saline (PBS), and then the medium was cultured. […] Then, each of the cell lysates was transferred to a cell culture plate (Costar) for a 96-well luminometer, and luciferase activity for each cell lysate was measured using Luciferase Assay System™ kit (Promega Corporation) according to the manufacturer's instruction. […]
(§3) Next, 50 μl of 1 M sodium carbonate (Na2CO3) solution was added to each well, and the absorbance of each well at 415 nm was measured. The efficiency of transformation in each cell lysate was corrected with the β-galactosidase activity measured as described above, and the relative activity of luciferase to the β-galactosidase activity was calculated and compared between Examples.

[2] = molecular target: T2, retinoic acid receptor γ (RAR-γ) (Homo sapiens, UniProt P13631); assay: Retinoic acid receptor γ transcriptional activity, luciferase reporter in transfected CV-1 cells; conditions: monkey kidney epithelial CV-1 cells, 20 h; extracts 100 μg/ml (Example 3: 100 μg/ml of each extract), retinoic acid 1 μM; corrected with β-galactosidase activity; control = 100
T2 construct: expressed in transfected cells; host or cells: monkey kidney epithelial CV-1 cells
T2 sequence (P13631 1-454): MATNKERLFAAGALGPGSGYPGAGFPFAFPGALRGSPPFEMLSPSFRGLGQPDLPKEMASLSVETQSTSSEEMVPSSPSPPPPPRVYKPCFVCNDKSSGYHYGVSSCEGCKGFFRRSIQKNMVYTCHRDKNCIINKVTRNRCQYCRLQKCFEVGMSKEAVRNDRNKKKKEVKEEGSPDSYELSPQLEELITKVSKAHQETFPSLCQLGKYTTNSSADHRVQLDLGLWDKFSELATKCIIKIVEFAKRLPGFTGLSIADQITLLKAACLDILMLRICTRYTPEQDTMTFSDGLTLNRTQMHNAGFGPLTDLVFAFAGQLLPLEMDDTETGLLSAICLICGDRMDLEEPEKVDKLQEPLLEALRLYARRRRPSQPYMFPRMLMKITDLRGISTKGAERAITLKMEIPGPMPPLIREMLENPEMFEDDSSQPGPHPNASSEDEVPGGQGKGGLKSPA
Description: as §1, §2, §3

collagenase = assay: Inhibition of collagenase expression (collagenase production) in human fibroblasts, ELISA absorbance at 405 nm; conditions: 24 h treatment, extracts 100 μg/ml (Example 3: 100 μg/ml of each extract), retinoic acid 1 μM, untreated control = 100
Description: Using the Lycium chinense fruit extract obtained in Example 1, the pine tree extract obtained in Example 2, and a 1:1 (w/w) mixture (Example 3) of a Lycium chinense fruit extract obtained by extracting 100 g of Lycium chinense fruits according to the method of Example 1 and a pine needle extract obtained by extracting 100 g of pine needles according to the method of Example 2, their effects on the inhibition of collagenase expression (collagenase production) were measured in the following manner. As a positive control, retinoic acid known to inhibit collagenase expression was used. […]
Next, the degree of collagenase production in each of the harvested cell cultures was measured using a collagenase measurement device (Amersham Phamasia, USA). […]
The absorbance of the 96-well plate having a yellow color was measured at 405 nm using an absorbance spectrometer, and the expression of collagenase was calculated using the following Equation 1. Herein, the absorbance of an untreated group was used as a control group. That is, the expression of collagenase in the control group was set at 100, and the expression of collagenase in each test group was calculated relative to the control group. […]
wherein A is the absorbance of the cell group treated with each test material, and B is the absorbance of the control group.

CC1=C(/C=C/C(C)=C/C=C/C(C)=C/C(=O)O)C(C)(C)CCC1 [Retinoic acid, retinoic acid]
Relative activity (%) of luciferase (RAR-α) [1]: 343%
Relative activity (%) of luciferase (RAR-γ) [2]: 385%
Collagenase expression (%) (collagenase): 51.3%
